This note sets out measurements from paper doi:10.1101/2021.11.14.468520v1, “Exploring the kinetic selectivity of antipsychotics for dopamine D2 and 5-HT2A receptors: implications for the prevalence of EPS and receptor occupancy” (biorxiv, 2021).

In general, Kd refers to the constant that tells how readily two partners part at equilibrium. By koff is commonly meant a measure of how fast the partners let go of each other. In general, Ki refers to the dissociation constant of the complex between target and ligand, obtained from inhibition or displacement.

The target in assay [1] is T1, human 5-HT2A receptor (5-HT2AR) (Homo sapiens, UniProt P28223).
T1 construct: gene HTR2A; SNAP-tagged (SNAP-Lumi4-Tb labelled) receptor transiently expressed in CHO-K1 cells; membranes; plasmid from CisBio
The experiment in a line: TR-FRET saturation binding. The settings on record: labelled compound; CHO membranes; […] GppNHp, pH […]; equilibrium, […] min.

In assay [2] the target is T1, human 5-HT2A receptor (5-HT2AR). Put plainly: biochemical. More on the design: species or system CHO. The settings on record: read-out: koff (min^-1).
Assay [3] has the same target. The experiment in a line: TR-FRET equilibrium competition binding. The text has this:
TR-FRET equilibrium competition binding on human 5-HT2A receptor (5-HT2AR)
Background: Time-resolved FRET reads energy transfer from a long-lived donor to a nearby acceptor.

T1 sequence (P28223 whole entry): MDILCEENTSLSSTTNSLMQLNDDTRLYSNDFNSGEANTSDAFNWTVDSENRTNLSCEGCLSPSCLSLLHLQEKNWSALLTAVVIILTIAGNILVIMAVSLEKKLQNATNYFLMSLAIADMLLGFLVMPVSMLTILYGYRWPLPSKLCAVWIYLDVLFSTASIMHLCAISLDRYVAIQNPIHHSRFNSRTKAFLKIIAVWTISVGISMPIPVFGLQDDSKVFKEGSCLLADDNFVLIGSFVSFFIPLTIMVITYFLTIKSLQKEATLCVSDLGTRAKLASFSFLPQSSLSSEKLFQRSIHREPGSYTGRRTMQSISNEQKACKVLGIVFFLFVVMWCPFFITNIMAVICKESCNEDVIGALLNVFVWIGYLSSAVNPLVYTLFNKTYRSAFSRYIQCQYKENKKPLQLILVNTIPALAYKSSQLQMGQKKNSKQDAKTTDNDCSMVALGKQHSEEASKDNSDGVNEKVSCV

4F4PP oxalate-red yielded a Kd in assay [1] of 3.98 ± 0.65 nM.

`CN1CC2c3ccccc3Oc3ccc(Cl)cc3C2C1` (centres unmarked) [Asenapine]: the off-rate constant (koff) in assay [2] was 0.7 min⁻¹. For the same compound, the Ki in assay [3] was 0.661 nM.

Regarding `Cc1nc2n(c(=O)c1CCN1CCC(c3noc4cc(F)ccc34)CC1)CCCC2O` (centres unmarked) [Paliperidone], the koff in assay [2] was 0.23 min⁻¹. This compound gave an inhibition constant Ki in assay [3] of 1.02 nM.
